In patent US9763998B2, “Serpins: methods of therapeutic β-cell regeneration and function” (Joslin Diabetes Center, Inc., priority 2013, dated 2017):

Tests used:
[1] = system: freshly isolated primary mouse islets (β-cells); assay: Primary mouse islet β-cell proliferation by Ki67 immunofluorescent staining (SerpinB1, ovalbumin, Sivelestat); format: cell-based
Description: To test whether SerpinB1 is a β-cell growth factor, we cultured freshly isolated primary mouse islets in presence of various doses of recombinant human SerpinB1 or ovalbumin (SerpinB14) and evaluated β-cell proliferation by Ki67 immunofluorescent staining (known to those of ordinary skill in the art). […] A major substrate of SerpinB1 is neutrophil elastase. To investigate whether the proliferative action of SerpinB1 is mediated by antagonizing neutrophil elastase activity, we assessed the ability of the neutrophil elastase inhibitor, Sivelestat (Sivelestat is the International Nonproprietary Name (INN) as given by the World Health Organization (WHO); the chemical name is: N-{2-[({4-[(2,2-dimethylpropanoyl)oxy]phenyl}sulfonyl)amino]benzoyl}glycine), to stimulate islet β-cell proliferation in vitro.
In all experiments, cell counting was manually performed in a blinded fashion by a single observer. BrdU+ or Ki67+β cells were assessed by immunofluorescence microscopy. Insulin+ cells showing nuclear DAPI staining were considered as β cells. Insulin+ cells showing nuclear colocalized staining for DAPI+ and Ki67+ (or BrdU+) were counted as proliferating β cells. The double-positive cells (Ins+/BrdU+ or Ins+/Ki67+) were confirmed in randomly selected cells in all experiments by confocal microscopy.

[2] = system: human (EndoC-βH1) β-cells; assay: Ki67 positive human β-cells (EndoC-βH1) with Sivelestat; format: cell-based; details: 100 μg/ml; compared to non-treated cells
[3] = 1 μg/ml, SerpinB1 compared to islets cultured at a similar concentration of ovalbumin

CC(C)(C)C(=O)Oc1ccc(S(=O)(=O)Nc2ccccc2C(=O)NCC(=O)O)cc1 [Sivelestat, N-{2-[({4-[(2,2-dimethylpropanoyl)oxy]phenyl}sulfonyl)amino]benzoyl}glycine]
number of proliferating insulin+ cells ([1]; higher doses (e.g. 10 and 50 μg/ml)): substantial increase | islet β-cell proliferation in vitro ([1]; low doses (1 and 5 μg/ml), FIG. 12): do not enhance β-cell proliferation | number of Ki67 positive β-cells [2]: increased

ovalbumin: ovalbumin (SerpinB14), control protein for SerpinB1 in islet culture
Ki67+ insulin+ cells (β-cell proliferation) [1, 3]: normal low β-cell proliferation

B1: SerpinB1: 42 kD serine peptidase inhibitor protein regulating neutrophil proteases; used as recombinant human SerpinB1 (protein, UniProt P30740 1-379, looked up)
Leukocyte elastase inhibitor: MEQLSSANTRFALDLFLALSENNPAGNIFISPFSISSAMAMVFLGTRGNTAAQLSKTFHFNTVEEVHSRFQSLNADINKRGASYILKLANRLYGEKTYNFLPEFLVSTQKTYGADLASVDFQHASEDARKTINQWVKGQTEGKIPELLASGMVDNMTKLVLVNAIYFKGNWKDKFMKEATTNAPFRLNKKDRKTVKMMYQKKKFAYGYIEDLKCRVLELPYQGEELSMVILLPDDIEDESTGLKKIEEQLTLEKLHEWTKPENLDFIEVNVSLPRFKLEESYTLNSDLARLGVQDLFNSSKADLSGMSGARDIFISKIVHKSFVEVNEEGTEAAAATAGIATFCMLMPEENFTADHPFLFFIRHNSSGSILFLGRFSSP
Ki67+ insulin+ cells (β-cell proliferation) [1, 3]: reached statistical significance | Ki67+ insulin+ cells (β-cell proliferation) ([1]; isolated mouse islets cultured with various doses of recombinant SerpinB1): dose-dependent increase
